Measured values: patent US12091398B2, “PD-L1 antagonist compound” (ADLAI NORTYE BIOPHARMA CO., LTD., priority 2019, dated 2024)

tested on: PD-1/PD-L1 interaction; test: Cell based PD-1/PD-L1 NFAT reporter assay; parameters: species or system human; settings: Homo sapiens, 6 h, PD-1/NFAT-Reporter-Jurkat cells co-cultured with TCR activator/PD-L1-CHO cells; 6 hour incubation; luciferase; calibrated to Atezolizumab 10 nM; read-out: Absolute EC50
Method: Cell Based PD-1/PD-L1 NFAT Reporter Assay
Compounds of the present patent were tested in a cell based PD-1/PD-L1 NFAT reporter assay.
The cell-based luciferase reporter assay is used for monitoring the PD-1/PD-L1 inhibitor by characterizing the biological activity of PD-1: PD-L1 interactions in cellular context. PD-1/NFAT-Reporter-Jurkat cells stably over-expressing human PD-1 with NFAT reporter are used as effector cells. TCR activator/PD-L1—CHO cells over-expressing PD-L1 and an engineered T cell receptor (TCR) activator are used as target cells. When these two cells are co-cultivated, TCR complexes on effector cells are activated by TCR activator on target cells, resulting in expression of the NFAT luciferase reporter. However, PD1 and PD-L1 (or PD-L2) ligation prevents TCR activation and suppresses the NFAT-responsive luciferase activity. This inhibition can be specifically reversed by anti-PD1 or anti-PD-L1 inhibitors. PD1/PD-L1 inhibitors block PD1:PD-L1 interaction and promote TCR activation, resulting in reactivation of the NFAT responsive luciferase reporter.
PD-1/NFAT—Reporter—Jurkat cell (Cat: 60535) and TCR activator/PD-L1—CHO cell (Cat: 60536) were purchased from BPS Bioscience. Anti-human PD-L1 antibody (Atezolizumab, Cat: A2004) was purchased from Selleck; luciferase reporter gene expression detection kit (ONE-Glo™ Luciferase Assay System, Cat: E6120) was purchased from Promega; multifunction plate reader (SpectraMax i3x) was purchased from Molecular Devices.
PD-1/NFAT—Reporter—Jurkat cells and TCR activator/PD-L1—CHO cells were cultured in recommended media respectively.
Harvest TCR activator/PD-L1-CHO cells from culture and seed cells at a density of 35,000 cells per well into 96-well microplate in 100 µl of growth medium. Incubate cells at 37° C. in a CO2 incubator overnight. Next day, discard the culture media, add diluted compound in assay medium for 30 min. Anti-PD-L1 antibody (Atezolizumab, final concentration 10 nM) and 0.1% DMSO were the positive and negative control, respectively. Harvest the PD-1/NFAT-reporter-Jurkat cells by centrifugation and add to the wells. After 6 hour incubation, perform luciferase assay using the ONE-Glo™ Luciferase Assay System, following the manufacturer's assay protocol.
Anti-PD-L1 antibody (Atezolizumnab, 10 nM) was used as positive control to calibrate the inhibition rate using the following equation: % inhibition=(Sample luminescence/Average vehicle group luminescence−1)/(Average PD-L1 group luminescence/Average vehicle group luminescence−1)×100%.

| Structure (SMILES) | EC50 [nM] |
| --- | --- |
| N#Cc1cc(COc2cc(OCc3cccc(-c4cccc5c4cnn5CCCN4CC[C@@H](O)C4)c3Br)c(Cl)cc2CN[C@@H](CO)C(=O)O)ccn1 [Compound 1] | 340 |
| N#Cc1cncc(COc2cc(OCc3cccc(-c4cccc5c4ccn5CCCN4CC[C@@H](O)C4)c3Br)c(Cl)cc2CN[C@@H](CO)C(=O)O)c1 [Compound 3] | 2380 |
| Cc1nn(CCCN2CC[C@@H](O)C2)c2cccc(-c3cccc(COc4cc(OCc5cncc(C#N)c5)c(CN[C@@H](CO)C(=O)O)cc4Cl)c3Br)c12 [Compound 4] | 5490 |
| N#Cc1cncc(COc2cc(OCc3cccc(-c4cccc5c4cnn5CCCN4CCC(O)CC4)c3Br)c(Cl)cc2CN[C@@H](CO)C(=O)O)c1 [Compound 6] | 266 |
| CC(CO)(CO)NCc1cc(Cl)c(OCc2cccc(-c3cccc4c3cnn4CCCCN3CC[C@@H](O)C3)c2Br)cc1OCc1cncc(C#N)c1 [Compound 7] | 338 |
| N#Cc1cncc(COc2cc(OCc3cccc(-c4cccc5c4cnn5CCCCCN4CC[C@@H](O)C4)c3Br)c(Cl)cc2CN[C@@H](CO)C(=O)O)c1 [Compound 9] | 367 |
| CC(CO)(NCc1cc(Cl)c(OCc2cccc(-c3cccc4c3cnn4CCCN3CC[C@@H](O)C3)c2Br)cc1OCc1cncc(C#N)c1)C(=O)O (stereo partly drawn) [Compound 10] | 412 |
| CC(CO)(NCc1cc(Cl)c(OCc2cccc(-c3cccc4c3cnn4CCCCN3CC[C@@H](O)C3)c2Br)cc1OCc1cncc(C#N)c1)C(=O)O (stereo partly drawn) [Compound 12] | 289 |
| CC(CO)(CO)NCc1cc(Cl)c(OCc2cccc(-c3cccc4c3cnn4CCCN3CCC(O)CC3)c2Br)cc1OCc1cncc(C#N)c1 [Compound 13] | 242 |
| CC(CO)(CO)NCc1cc(Cl)c(OCc2cccc(-c3cccc4c3cnn4[C@H]3CC[C@H](N4CC[C@@H](O)C4)CC3)c2Br)cc1OCc1cncc(C#N)c1 [Compound 14] | 323 |
| CC(CO)(CO)NCc1cc(Cl)c(OCc2cccc(-c3cccc4c3cnn4CCCCN(CCO)CCO)c2Br)cc1OCc1cncc(C#N)c1 [Compound 15] | 3240 |
| CC(CO)(CO)NCc1cc(Cl)c(OCc2cccc(-c3cccc4c3cnn4CCCCNCCO)c2Br)cc1OCc1cncc(C#N)c1 [Compound 16] | 9360 |
| CC1(C)OCC(N2CCC(n3ncc4c(-c5cccc(COc6cc(OCc7cncc(C#N)c7)c(CN[C@@H](CO)C(=O)O)cc6Cl)c5Br)cccc43)CC2)CO1 [Compound 17] | 1760 |
| C[C@@](CO)(NCc1cc(Cl)c(OCc2cccc(-c3cccc4c3cnn4CCCN3CC[C@@H](O)C3)c2Br)cc1OCc1cncc(C#N)c1)C(=O)O [Compound 18] | 235 |
| N#Cc1cncc(COc2cc(OCc3cccc(-c4cccc5c4cnn5CC4CCC(N5CC[C@@H](O)C5)CC4)c3Br)c(Cl)cc2CN[C@@H](CO)C(=O)O)c1 (stereo partly drawn) [Compound 19] | 764 |
| CC(CO)(CO)NCc1cc(Cl)c(OCc2cccc(-c3cncc4c3cnn4CCCCN3CC[C@@H](O)C3)c2Br)cc1OCc1cncc(C#N)c1 [Compound 21] | 3540 |
| N#Cc1cncc(COc2cc(OCc3cccc(-c4cccc5c4cnn5C4CCN(C(CO)CO)CC4)c3Br)c(Cl)cc2CN[C@@H](CO)C(=O)O)c1 [Compound 22] | 1130 |
| N#Cc1cncc(COc2cc(OCc3cccc(-c4cccc5c4cnn5CCCCN4CCC[C@H]4C(=O)O)c3Br)c(Cl)cc2CN[C@@H](CO)C(=O)O)c1 [Compound 23] | 608 |
| N#Cc1cncc(COc2cc(OCc3cccc(-c4cccc5c4cnn5CCCN4CC[C@@H](O)C4)c3C3CC3)c(Cl)cc2CN[C@@H](CO)C(=O)O)c1 [Compound 24] | > 10000 |

| Structure (SMILES) | EC50 [nM] |
| --- | --- |
| Cc1c(COc2cc(OCc3cncc(C#N)c3)c(CNC(C)(CO)CO)cc2Cl)cccc1-c1cccc2c1cnn2CCCN1CC[C@@H](O)C1 [Compound 25] | 138 |
| Cc1c(COc2cc(OCc3cncc(C#N)c3)c(CN[C@@H](CO)C(=O)O)cc2Cl)cccc1-c1ccnc2c1cnn2CCCCN1CC[C@@H](O)C1 [Compound 26] | 1830 |
| Cc1c(COc2cc(OCc3cncc(C#N)c3)c(CN[C@@H](CO)C(=O)O)cc2Cl)cccc1-c1cccc2c1cnn2CCCCN1CC[C@@H](O)C1 [Compound 27] | 643 |
| N#Cc1cncc(COc2cc(OCc3cccc(-c4cccc5c4cnn5CCCCN4CC[C@@H](O)C4)c3[N+](=O)[O-])c(Cl)cc2CN[C@@H](CO)C(=O)O)c1 [Compound 28] | 726 |
| N#Cc1cncc(COc2cc(OCc3cccc(-c4cccc5c4cnn5CCCCN4CC[C@@H](O)C4)c3N)c(Cl)cc2CN[C@@H](CO)C(=O)O)c1 [Compound 29] | > 1100 |
| CN(C)c1c(COc2cc(OCc3cncc(C#N)c3)c(CN[C@@H](CO)C(=O)O)cc2Cl)cccc1-c1cccc2c1cnn2CCCCN1CC[C@@H](O)C1 [Compound 31] | > 10000 |
| N#CCOc1cc(OCc2cccc(-c3cccc4c3cnn4CCCCN3CC[C@@H](O)C3)c2Br)c(Cl)cc1CN[C@@H](CO)C(=O)O [Compound 34] | 5780 |
| N#CCCCOc1cc(OCc2cccc(-c3cccc4c3cnn4CCCCN3CC[C@@H](O)C3)c2Br)c(Cl)cc1CN[C@@H](CO)C(=O)O [Compound 35] | 1540 |
| N#CCCCCOc1cc(OCc2cccc(-c3cccc4c3cnn4CCCCN3CC[C@@H](O)C3)c2Br)c(Cl)cc1CN[C@@H](CO)C(=O)O [Compound 36] | 2340 |
| N#CCCCCCOc1cc(OCc2cccc(-c3cccc4c3cnn4CCCCN3CC[C@@H](O)C3)c2Br)c(Cl)cc1CN[C@@H](CO)C(=O)O [Compound 37] | 1920 |
| NC(=O)COc1cc(OCc2cccc(-c3cccc4c3cnn4CCCCN3CC[C@@H](O)C3)c2Br)c(Cl)cc1CN[C@@H](CO)C(=O)O [Compound 38] | 7640 |
| Cc1cncc(COc2cc(OCc3cccc(-c4cccc5c4cnn5CCCCN4CC[C@@H](O)C4)c3Br)c(Cl)cc2CN[C@@H](CO)C(=O)O)c1 [Compound 39] | > 10000 |
| COc1cncc(COc2cc(OCc3cccc(-c4cccc5c4cnn5CCCCN4CC[C@@H](O)C4)c3Br)c(Cl)cc2CN[C@@H](CO)C(=O)O)c1 [Compound 40] | > 10000 |
| O=C(O)[C@H](CO)NCc1cc(Cl)c(OCc2cccc(-c3cccc4c3cnn4CCCCN3CC[C@@H](O)C3)c2Br)cc1OCc1cncc(Cl)c1 [Compound 41] | 606 |
| Cn1cc(COc2cc(OCc3cccc(-c4cccc5c4cnn5CCCCN4CC[C@@H](O)C4)c3Br)c(Cl)cc2CN[C@@H](CO)C(=O)O)cn1 [Compound 42] | > 10000 |
| N#Cc1cc(C#N)cc(COc2cc(OCc3cccc(-c4cccc5c4cnn5CCCCN4CC[C@@H](O)C4)c3Br)c(Cl)cc2CN[C@@H](CO)C(=O)O)c1 [Compound 44] | 153 |
| O=C(O)[C@H](CO)NCc1cc(Cl)c(OCc2cccc(-c3cccc4c3cnn4CCCCN3CC[C@@H](O)C3)c2Br)cc1OCC1CCOCC1 [Compound 45] | 2720 |
| CN1CCC(COc2cc(OCc3cccc(-c4cccc5c4cnn5CCCCN4CC[C@@H](O)C4)c3Br)c(Cl)cc2CN[C@@H](CO)C(=O)O)CC1 [Compound 46] | 846 |
| O=C1CC[C@@H](COc2cc(OCc3cccc(-c4cccc5c4cnn5CCCCN4CC[C@@H](O)C4)c3Br)c(Cl)cc2CN[C@@H](CO)C(=O)O)N1 [Compound 47] | 261 |

same assay, conditions: PD-1/NFAT-Reporter-Jurkat cells co-cultured with TCR activator/PD-L1-CHO cells; 6 hour incubation; luciferase; calibrated to Atezolizumab 10 nM; read-out: Absolute EC50

| Structure (SMILES) | EC50 [nM] |
| --- | --- |
| N#Cc1cncc(COc2cc(OCc3cccc(-c4cccc5c4cnn5CCCN4CC[C@@H](O)C4)c3Br)c(Cl)cc2CN[C@@H](CO)C(=O)O)c1 [Compound 2] | 310 |
| N#Cc1cncc(COc2cc(OCc3cccc(-c4cccc5c4cnn5CCCCN4CC[C@@H](O)C4)c3Br)c(Cl)cc2CN[C@@H](CO)C(=O)O)c1 [Compound 5] | 241 |
| N#Cc1cncc(COc2cc(OCc3cccc(-c4cccc5c4cnn5CCCCN4CC[C@@H](O)C4)c3Br)c(Cl)cc2CN[C@@H](CO)C(=O)O)c1 [Compound 8] | 1160 |
| CC(CO)(CO)NCc1cc(Cl)c(OCc2cccc(-c3cccc4c3cnn4CCCN3CC[C@@H](O)C3)c2Br)cc1OCc1cncc(C#N)c1 [Compound 11] | 142 |
| N#Cc1cncc(COc2cc(OCc3cccc(-c4cccc5c4cnn5CC4CCC(N5CC[C@@H](O)C5)CC4)c3Br)c(Cl)cc2CN[C@@H](CO)C(=O)O)c1 (stereo partly drawn) [Compound 20] | 876 |
| N#Cc1cncc(COc2cc(OCc3cccc(-c4cccc5c4cnn5CCCN4CC[C@@H](O)C4)c3Br)c(Cl)cc2CN[C@@H](CO)C(=O)O)c1 [Compound 32] | 724 |
| CC(CO)(CO)NCc1cc(Cl)c(OCc2cccc(-c3cccc4c3cnn4CCCN3CC[C@@H](O)C3)c2Br)cc1OCc1cncc(C#N)c1 [Compound 33] | > 370 |
